Read-outs that look alike come from different tables or passages of the source.
Assays:
[1] = test system: IRAK1, NF-κB, MAPKs, IRAK4 (MyD88); assay: MyD88 downstream signalling in human macrophages; type: cell-based
SARS-CoV-2 = assay: cell viability (CPE) assay, VERO-E6 cells enriched for ACE-2 infected with SARS-CoV-2, CellTiter-Glo; type: cell-based; conditions: for IC50: VERO-E6 cells enriched for ACE-2 plus SARS-CoV-2; for EC50: CPE assay
[2] = toxicity assay, VERO-E6 cells enriched for ACE-2 in the absence of virus, CellTiter-Glo; conditions: African green monkey, VERO-E6 cells enriched for ACE-2 receptor, no virus
VERO-E6 cells = assay: as above; conditions: compound alone
[3] = human macrophages, through interaction with MyD88
[4] = Severe acute respiratory syndrome coronavirus 2, Vero C1008, positive controls, read-out: IC50 (μM), In Vitro Anti-SARS-CoV-2 Activity

Which results are given for O.O=C(OC[C@H]1O[C@@H](OC(=O)c2cc(O)c(O)c(O)c2)[C@H](OC(=O)c2cc(O)c(O)c(O)c2)[C@@H](OC(=O)c2cc(O)c(O)c(O)c2)[C@@H]1OC(=O)c1cc(O)c(O)c(O)c1)c1cc(O)c(O)c(O)c1?
NF-κB translocation into the nucleus [1]: inhibited; activation of IRAK1, NF-κB, and MAPKs [1, 3]: potently reduced; expression of IRAK4 [1, 3]: increasing expression

For CCN(CC)CCCC(C)Nc1ccnc2cc(Cl)ccc12 (centres unmarked) [Chloroquine, chloroquine, reference compound], which IC50 (SARS-CoV-2; [4]) is on record?
The IC50 was 3.78 µM.

And the CC50 [2]?
Its CC50 is > 30 µM.

For CCOC(=O)[C@H]1O[C@@H]1C(=O)N[C@@H](CC(C)C)C(=O)NCCC(C)C [E64d (aloxistatin), aloxistatin, reference compound], which IC50 (SARS-CoV-2; [4]) is on record?
The IC50 was 7.48 µM.

And the CC50 [2]?
The CC50 was > 30 µM.

With CCN(CCO)CCCC(C)Nc1ccnc2cc(Cl)ccc12 (centres unmarked) [Hydroxychloroquine, hydroxychloroquine, reference compound] as the molecule, how does the IC50 (SARS-CoV-2; [4]) read?
Its IC50 is 3.53 µM.

What about the CC50 [2] of the same molecule?
The CC50 was > 30 µM.

For CCC(CC)COC(=O)[C@H](C)N[P@](=O)(OC[C@H]1O[C@@](C#N)(c2ccc3c(N)ncnn23)[C@H](O)[C@@H]1O)Oc1ccccc1 [Remdesivir, remdesivir, reference compound], which CC50 [2] is on record?
The CC50 was > 30 µM.

For COc1ccc2cc1Oc1ccc(cc1)C[C@H]1c3cc(c(OC)cc3CCN1C)Oc1c(OC)c(OC)cc3c1[C@H](C2)N(C)CC3 [tetrandrine, (1S,14S)-9,20,21,25-tetramethoxy-15,30-dimethyl-7,23-dioxa-15,30-diazaheptacyclo[22.6.2.2^3,6.1^8,12.1^14,18.0^27,31.0^22,33]hexatriaconta-3(36),4,6(35),8,10,12(34),18,20,22(33),24,26,31-dodecaene], which EC50 (SARS-CoV-2; Severe acute respiratory syndrome coronavirus 2, Vero C1008, compound alone) is on record?
Its EC50 is 1.25 µM.

What about the “SI (selectivity index; CC50/EC50)” value (SARS-CoV-2; compound alone) of the same molecule?
Its value is “SI: 5.02”.

And the CC50 [2]?
Its CC50 is 6.28 µM.

For “(14S,27S)-22,33-dimethoxy-13,28-dimethyl-2,5,7,20-tetraoxa-13,28-diazaoctacyclo[25.6.2.2^16,19.1^3,10.1^21,25.0^4,8.0^31,35.0^14,39]nonatri-aconta-1(33),3(39),4(8),9,16(38),17,19(37),21,23,25(36),31,34-dodecaene [cepharanthine]”, which EC50 (SARS-CoV-2; compound alone) is on record?
Its EC50 is 0.51 µM.

What about the IC50 (SARS-CoV-2; compound alone, read-out: IC50) of the same molecule?
The IC50 was 0.51 µM.

What about the CC50 (VERO-E6 cells; VERO-E6 cells enriched for ACE-2, absence of virus) of the same molecule?
Its CC50 is 7.22 µM.

And the CC50 (VERO-E6 cells)?
Its CC50 is 7.22 µM.

— US20230310414A1
